Reference: publication PMC8264504, “Identification of Koumine as a Translocator Protein 18 kDa Positive Allosteric Modulator for the Treatment of Inflammatory and Neuropathic Pain” (Frontiers in Pharmacology, 2021)
Read-outs that look alike come from different tables or passages of the source.

Tests used:
[1] = tested on: formalin-induced inflammatory pain model; test: Formalin test; format: in vivo, mice; settings: for phase one nociceptive response: given alone, s.c.
Procedure: The formalin test was assessed as described by Dubuisson and Dennis ([Dubuisson and Dennis, 1977]) with minor modifications. Briefly, mice were allowed to acclimate for at least 30 min in the transparent plastic box before formalin injection. Each animal was injected with 10 μl of 5% formalin into the dorsal surface of the right hindpaw. Mice were then observed at 0–5 min (phase one) and at 11–60 min (phase two) after formalin, and the amount of time spent licking or biting the injected paw was recorded as the nociceptive response. Ro5-4864 or vehicle (5% DMSO) was administered s. c. 30 min prior to the formalin injection, and koumine was administered s. c. 40 min before formalin injection. To determine whether koumine potentiated the anti-inflammatory pain effects of Ro5-4864, koumine or its vehicle was injected 10 min before Ro5-4864 injection. Ro5-4864 was dissolved in DMSO and diluted in sterile physiological saline, and the final concentration of DMSO was 5%. Koumine was dissolved in sterile physiological saline directly. Animals were randomized for treatment and behavioral test were performed in a blinded manner.

rat model of CCI = test: Chronic constriction injury (CCI) model, MWT; format: in vivo
From the text: (§1) The rat CCI model of neuropathic pain was produced according to the method described by Bennett and Xie ([Bennett and Xie, 1988]). Adult male SD rats were anesthetized by isoflurane delivered by using the anesthetic machine. The right common sciatic nerve was isolated at the mid-thigh level and loosely ligated using four chromic gut (4–0) ties separated by intervals of 1 mm. For sham surgeries, the right sciatic nerve was exposed using the same procedure, but the nerve was not ligated. On the 9th day after surgery, Ro5-4864 or vehicle (5% DMSO) was administered i. p. 50 min before the measurement of mechanical allodynia, and koumine was administered s. c. 60 min before the measurement of mechanical allodynia. To determine whether koumine potentiated the analgesic effects of Ro5-4864, koumine (0.28 mg/kg, s. c.) or vehicle was injected 10 min before Ro5-4864 (0.0625–1.0 mg/kg, i. p.) injection on day 9 after CCI surgery, and the MWT was determined 50 min after the last injection. Animals were randomized for treatment and behavioral test were performed in a blinded manner. Mechanical allodynia was measured using the procedures described below. Only rats with mechanical withdrawal threshold scores (calculated by CCI ipsilateral paw mechanical withdrawal threshold/contralateral paw mechanical withdrawal threshold) on day 8 after CCI surgery >0.75 were used in the study.
(§2) Mechanical allodynia was measured using a commercially available electronic von Frey apparatus (Model 2,390; IITC Life Science Inc., Woodland Hills, CA) as described by Mitrirattanakul ([Mitrirattanakul et al., 2006]) with minor modifications. Rats were placed in a Plexiglas box on a steel mesh floor, and analyses were performed using an electronic von Frey apparatus. Stimulation was applied to the center of the hind paw in an upward motion of the von Frey filament until foot withdrawal occurred, and the withdrawal threshold was automatically recorded. The maximum strength of the filament used for von Frey testing was 55 g. The procedure was repeated three times at approximately 5 min intervals for each hind paw, and the MWT was calculated as the mean of the three latencies.

[2] = tested on: naïve and CCI sham-operated rats; test: MWT in naïve and CCI sham-operated rats; format: in vivo, rat; settings: for MWT: given alone
From the text: as §1, with “Animals were randomized for treatment and behavioral test were performed in a blinded manner.” left out
as §2, with “Rats were placed in a Plexiglas box on a steel mesh floor, and analyses were performed using an electronic von Frey apparatus.” left out, “The maximum strength of the filament used for von Frey testing was 55 g.” left out
Figure S5 Modulation of the in vivo efficacy of Ro5-4864 by koumine in the naïve and CCI sham rat model. […] Koumine (0.28 mg/kg) was injected s.c. 9 days after CCI sham surgery, the MWT was determined 60 min after koumine injection. […]

[3] = tested on: T98G human glioblastoma cells; test: Cell viability assay (CellTiter Blue); format: cell-based; settings: same dosing regimen as proliferation, 48 h
Procedure: T98G cells were plated and treated as in the proliferation assays. After 48 h of drug exposure, CellTiter Blue Reagent (Promega) was added to the cells and incubated for 4 h in 5% CO2 at 37°C. Absorption was measured at 570 nm using 600 nm as a reference wavelength.

rat C6 glioma cells = test: Pregnenolone production; format: cell-based; settings: for EC50: read-out: EC50, pregnenolone production

CN1C(=O)CN=C(c2ccc(Cl)cc2)c2cc(Cl)ccc21 [Ro5-4864, reference compound]
phase two nociceptive response ([1]; Ro5-4864 alone 0.00016–0.5 mg/kg s.c. 30 min before formalin): produced a dose-dependent antinociceptive effect
phase one nociceptive response [1]: produced an antinociceptive effect
CCI-induced mechanical allodynia (MWT) (rat model of CCI; Ro5-4864 alone 0.0625–1.0 mg/kg i.p., 9 days after surgery): inhibited CCI-induced mechanical allodynia in a dose-dependent manner
MWT [2]: Neither Ro5-4864 nor koumine altered the MWT
cell viability [3]: not significantly affected
EC20 concentration, pregnenolone production (rat C6 glioma cells): ~11 µM
increase in pregnenolone production (rat C6 glioma cells): approximately 50%
EC50 (rat C6 glioma cells): 29 µM

C=C[C@@]12CN(C)[C@H]3C[C@]14C(=Nc1ccccc14)[C@H]1C[C@@H]2[C@@H]3CO1 [koumine]
modulation of Ro5-4864-mediated analgesic effect, phase two ([1]; 0.4 mg/kg koumine s.c. 10 min before 0.00016–0.02 mg/kg Ro5-4864 s.c.): significantly augment
modulation of Ro5-4864-mediated analgesic response, first phase ([1]; 0.4 mg/kg koumine s.c. 10 min before Ro5-4864): did not increase
phase one nociceptive response [1]: ineffective
significant inhibition of second-phase nociceptive response ([1]; koumine alone 0.08 and 0.4 mg/kg s.c.): not
second-phase nociceptive response ([1]; koumine alone 2.0 and 10 mg/kg s.c. 40 min before formalin): significantly inhibited the second-phase nociceptive response
modulation of Ro5-4864-mediated antinociceptive activity (MWT) (rat model of CCI; 0.28 mg/kg koumine s.c. 10 min before 0.0625–0.5 mg/kg Ro5-4864 i.p., day 9): significantly augmented
notable antinociceptive effect on CCI-induced mechanical allodynia (MWT) (rat model of CCI; koumine alone 0.28 mg/kg s.c., day 9): not
CCI-induced mechanical allodynia (MWT) (rat model of CCI; koumine alone 1.4 and 7.0 mg/kg s.c., day 9): notable antinociceptive effects
MWT [2]: Neither Ro5-4864 nor koumine altered the MWT
modulation of antinociceptive effect of Ro5-4864 (MWT) ([2]; koumine 0.28 mg/kg s.c. before Ro5-4864 i.p.): could not significantly augment
cell viability [3]: not significantly affected
EC50 (rat C6 glioma cells; Rattus norvegicus, C6 glioma, 2 h): 270 µM
Emax (rat C6 glioma cells; Rattus norvegicus, C6 glioma, 2 h, read-out: Emax, pregnenolone production): 33%
modulation of pregnenolone production activity (rat C6 glioma cells; koumine with an EC20 concentration of PK11195 (∼27 μM)): did not significantly increase
modulation of pregnenolone production activity (rat C6 glioma cells; koumine with an EC20 concentration of Ro5-4864 (∼11 μM)): did not significantly increase
